For the test, the system named is SOX2. Nature of the test: SOX2 levels in xenograft tumors (IHC, qRT-PCR). It is filed as in vivo. The note with it: IHC and qRT-PCR, vs vehicle control-treated mice. The procedure:
IHC was performed using the BioCare Mach4 Universal Detection Kit. Specifically, anti-SOX2 was diluted in Da Vinci Green Diluent and incubated overnight at 4° C. in a humidified chamber. HRP was detected with 3,30-diaminobenzidine (DAB) substrate for 4 minutes. TUNEL staining was performed according to the manufacturer's instruction. Slides were examined and images captured with EVOS M7000 microscope. Cell profiler (Stirling et al., 2021) and Image J Fiji software were used for image quantification.
For orientation: In qPCR the cycle at which signal appears reflects the starting amount.

Data on one substance can be found in patent US20240408175A1, “BMP9 OR AN AGONIST THEREOF AND ITS USES RELATED TO REDUCING METASTASIS OF CANCER” (THE UAB RESEARCH FOUNDATION, priority 2021, published 2024).

On to “BMP9: recombinant human bone morphogenetic protein 9 (BMP9/GDF2), TGF-β family ligand”, for which the “SOX2 levels in xenograft tumors” value is “overall reduction”.
